ChEMBL document CHEMBL3991601, “The target landscape of clinical kinase drugs” (Science, 2017)
Activity calls are given as the source filed them. Rule as the data show it, for most assays here: actives have a measured Kd and inactives only a lower limit.

Assays:
[1] = target: Cyclin-dependent kinase 12 (Homo sapiens, UniProt Q9NYV4)
Septin-9 = target: T1, Septin-9 (Homo sapiens, UniProt Q9UHD8)
T1 sequence (Q9UHD8 whole entry): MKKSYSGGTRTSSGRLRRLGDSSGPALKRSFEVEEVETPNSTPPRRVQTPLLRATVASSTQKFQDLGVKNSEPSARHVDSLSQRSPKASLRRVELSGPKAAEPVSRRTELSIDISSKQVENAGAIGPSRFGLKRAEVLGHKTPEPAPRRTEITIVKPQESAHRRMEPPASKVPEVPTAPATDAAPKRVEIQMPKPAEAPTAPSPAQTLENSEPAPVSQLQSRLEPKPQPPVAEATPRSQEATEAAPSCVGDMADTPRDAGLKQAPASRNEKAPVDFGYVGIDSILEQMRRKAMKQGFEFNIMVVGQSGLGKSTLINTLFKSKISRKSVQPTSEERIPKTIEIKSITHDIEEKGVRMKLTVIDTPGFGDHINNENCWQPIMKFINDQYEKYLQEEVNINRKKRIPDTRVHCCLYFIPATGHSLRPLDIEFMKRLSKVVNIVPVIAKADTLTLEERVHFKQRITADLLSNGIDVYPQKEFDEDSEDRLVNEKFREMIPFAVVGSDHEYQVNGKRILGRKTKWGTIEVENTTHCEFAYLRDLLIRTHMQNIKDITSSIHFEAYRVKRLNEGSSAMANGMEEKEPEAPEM

[2] = target: T2, Cyclin-G-associated kinase (Homo sapiens, UniProt O14976)
T2 sequence (O14976 whole entry): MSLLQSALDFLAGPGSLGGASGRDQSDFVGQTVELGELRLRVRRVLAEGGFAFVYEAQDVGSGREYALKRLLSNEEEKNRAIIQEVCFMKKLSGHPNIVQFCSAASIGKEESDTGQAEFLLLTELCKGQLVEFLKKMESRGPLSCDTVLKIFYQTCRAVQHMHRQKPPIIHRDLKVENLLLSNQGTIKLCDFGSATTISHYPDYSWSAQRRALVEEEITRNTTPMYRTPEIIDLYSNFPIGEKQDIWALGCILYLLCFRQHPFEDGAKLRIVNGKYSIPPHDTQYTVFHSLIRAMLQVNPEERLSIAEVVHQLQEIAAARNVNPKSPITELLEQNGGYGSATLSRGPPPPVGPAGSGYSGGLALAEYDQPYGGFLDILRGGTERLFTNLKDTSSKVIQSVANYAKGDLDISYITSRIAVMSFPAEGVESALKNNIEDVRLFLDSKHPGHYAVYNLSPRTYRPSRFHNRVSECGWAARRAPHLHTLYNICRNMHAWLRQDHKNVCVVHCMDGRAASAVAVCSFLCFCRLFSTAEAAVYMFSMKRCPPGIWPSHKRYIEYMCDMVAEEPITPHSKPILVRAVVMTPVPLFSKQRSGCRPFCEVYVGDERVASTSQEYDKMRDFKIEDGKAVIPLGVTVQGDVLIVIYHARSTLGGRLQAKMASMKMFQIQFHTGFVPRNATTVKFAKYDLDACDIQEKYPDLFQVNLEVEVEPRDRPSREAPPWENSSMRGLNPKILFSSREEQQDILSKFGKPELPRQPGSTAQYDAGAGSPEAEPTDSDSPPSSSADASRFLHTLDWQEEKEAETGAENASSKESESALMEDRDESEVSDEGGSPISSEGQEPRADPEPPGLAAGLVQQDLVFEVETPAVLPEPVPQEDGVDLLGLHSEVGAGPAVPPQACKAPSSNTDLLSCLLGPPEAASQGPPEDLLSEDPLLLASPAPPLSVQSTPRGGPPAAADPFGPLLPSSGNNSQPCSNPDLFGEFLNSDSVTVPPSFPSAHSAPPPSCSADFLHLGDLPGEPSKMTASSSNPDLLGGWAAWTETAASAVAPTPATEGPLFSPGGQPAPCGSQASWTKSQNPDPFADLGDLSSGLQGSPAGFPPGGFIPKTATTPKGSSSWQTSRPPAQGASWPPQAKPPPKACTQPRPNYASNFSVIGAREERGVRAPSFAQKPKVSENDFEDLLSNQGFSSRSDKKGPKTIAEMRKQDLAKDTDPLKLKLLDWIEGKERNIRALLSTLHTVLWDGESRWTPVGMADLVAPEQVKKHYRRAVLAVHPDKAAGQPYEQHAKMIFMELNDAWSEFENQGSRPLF

ADP/ATP translocase 2 = target: T3, ADP/ATP translocase 2 (Homo sapiens, UniProt P05141)
T3 sequence (P05141 whole entry): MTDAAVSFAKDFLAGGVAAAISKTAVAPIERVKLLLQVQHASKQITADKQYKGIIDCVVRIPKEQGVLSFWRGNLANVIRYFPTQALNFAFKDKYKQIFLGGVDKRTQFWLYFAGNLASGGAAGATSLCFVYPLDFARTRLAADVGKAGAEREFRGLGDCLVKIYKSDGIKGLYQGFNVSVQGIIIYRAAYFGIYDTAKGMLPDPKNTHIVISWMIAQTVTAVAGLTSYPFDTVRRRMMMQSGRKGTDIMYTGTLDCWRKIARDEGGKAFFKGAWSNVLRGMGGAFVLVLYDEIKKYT

[3] = target: Mitogen-activated protein kinase kinase kinase kinase 5 (Homo sapiens, UniProt Q9Y4K4)
Mitogen-activated protein kinase kinase kinase kinase 5, sequence (Q9Y4K4 whole entry): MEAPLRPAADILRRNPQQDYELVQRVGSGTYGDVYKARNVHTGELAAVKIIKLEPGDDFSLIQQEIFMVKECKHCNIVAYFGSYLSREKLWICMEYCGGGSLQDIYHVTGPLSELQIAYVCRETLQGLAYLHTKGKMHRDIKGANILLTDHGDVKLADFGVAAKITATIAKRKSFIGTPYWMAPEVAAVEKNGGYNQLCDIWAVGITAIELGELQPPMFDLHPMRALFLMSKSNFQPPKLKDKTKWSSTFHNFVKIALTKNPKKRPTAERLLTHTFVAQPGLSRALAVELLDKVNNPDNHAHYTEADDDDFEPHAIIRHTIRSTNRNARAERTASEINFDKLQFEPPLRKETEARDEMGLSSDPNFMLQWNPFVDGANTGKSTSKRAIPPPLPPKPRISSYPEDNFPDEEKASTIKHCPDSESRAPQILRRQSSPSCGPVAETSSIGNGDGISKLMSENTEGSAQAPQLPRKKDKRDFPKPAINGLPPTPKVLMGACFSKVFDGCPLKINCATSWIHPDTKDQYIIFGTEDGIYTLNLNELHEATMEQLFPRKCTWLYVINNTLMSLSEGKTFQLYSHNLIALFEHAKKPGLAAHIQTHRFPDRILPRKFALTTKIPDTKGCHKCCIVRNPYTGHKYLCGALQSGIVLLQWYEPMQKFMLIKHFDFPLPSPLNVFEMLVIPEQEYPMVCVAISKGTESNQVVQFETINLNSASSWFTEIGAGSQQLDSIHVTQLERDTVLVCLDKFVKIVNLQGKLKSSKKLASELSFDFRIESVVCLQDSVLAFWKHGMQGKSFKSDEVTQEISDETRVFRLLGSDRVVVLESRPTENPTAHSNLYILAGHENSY

[4] = target: GTP-binding nuclear protein Ran (Homo sapiens, UniProt P62826)
[5] = target: Protein-tyrosine kinase 6 (Homo sapiens, UniProt Q13882)
Protein-tyrosine kinase 6, sequence (Q13882 whole entry): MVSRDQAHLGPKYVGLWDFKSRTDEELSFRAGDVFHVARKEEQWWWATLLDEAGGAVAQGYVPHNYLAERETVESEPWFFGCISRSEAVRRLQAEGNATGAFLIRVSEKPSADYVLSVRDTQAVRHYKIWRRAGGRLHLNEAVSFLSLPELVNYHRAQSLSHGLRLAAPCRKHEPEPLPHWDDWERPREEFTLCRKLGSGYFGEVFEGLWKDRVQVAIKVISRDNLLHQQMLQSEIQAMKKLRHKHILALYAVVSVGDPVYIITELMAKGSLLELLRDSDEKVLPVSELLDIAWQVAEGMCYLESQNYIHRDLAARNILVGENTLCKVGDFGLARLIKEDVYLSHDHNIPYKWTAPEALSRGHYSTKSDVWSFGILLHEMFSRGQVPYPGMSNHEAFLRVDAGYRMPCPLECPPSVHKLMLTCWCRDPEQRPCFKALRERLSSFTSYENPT

[6] = target: T4, Phosphatidylinositol 5-phosphate 4-kinase type-2 gamma (Homo sapiens, UniProt Q8TBX8)
T4 sequence (Q8TBX8 whole entry): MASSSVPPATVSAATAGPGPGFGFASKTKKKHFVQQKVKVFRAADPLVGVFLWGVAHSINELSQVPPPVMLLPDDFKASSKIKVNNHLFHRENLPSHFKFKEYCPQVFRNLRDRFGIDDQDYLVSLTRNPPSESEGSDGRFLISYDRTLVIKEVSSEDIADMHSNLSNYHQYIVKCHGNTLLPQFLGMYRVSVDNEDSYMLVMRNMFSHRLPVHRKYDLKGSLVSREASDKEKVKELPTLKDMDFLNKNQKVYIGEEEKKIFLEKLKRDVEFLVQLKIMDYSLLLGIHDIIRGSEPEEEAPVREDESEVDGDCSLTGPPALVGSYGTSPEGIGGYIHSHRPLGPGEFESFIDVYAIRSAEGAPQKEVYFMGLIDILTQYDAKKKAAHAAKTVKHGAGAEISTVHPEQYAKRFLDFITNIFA
Also: in the data inactive means no Kd found up to 30 µM.

Cyclin-dependent kinase 12, sequence (Q9NYV4 whole entry): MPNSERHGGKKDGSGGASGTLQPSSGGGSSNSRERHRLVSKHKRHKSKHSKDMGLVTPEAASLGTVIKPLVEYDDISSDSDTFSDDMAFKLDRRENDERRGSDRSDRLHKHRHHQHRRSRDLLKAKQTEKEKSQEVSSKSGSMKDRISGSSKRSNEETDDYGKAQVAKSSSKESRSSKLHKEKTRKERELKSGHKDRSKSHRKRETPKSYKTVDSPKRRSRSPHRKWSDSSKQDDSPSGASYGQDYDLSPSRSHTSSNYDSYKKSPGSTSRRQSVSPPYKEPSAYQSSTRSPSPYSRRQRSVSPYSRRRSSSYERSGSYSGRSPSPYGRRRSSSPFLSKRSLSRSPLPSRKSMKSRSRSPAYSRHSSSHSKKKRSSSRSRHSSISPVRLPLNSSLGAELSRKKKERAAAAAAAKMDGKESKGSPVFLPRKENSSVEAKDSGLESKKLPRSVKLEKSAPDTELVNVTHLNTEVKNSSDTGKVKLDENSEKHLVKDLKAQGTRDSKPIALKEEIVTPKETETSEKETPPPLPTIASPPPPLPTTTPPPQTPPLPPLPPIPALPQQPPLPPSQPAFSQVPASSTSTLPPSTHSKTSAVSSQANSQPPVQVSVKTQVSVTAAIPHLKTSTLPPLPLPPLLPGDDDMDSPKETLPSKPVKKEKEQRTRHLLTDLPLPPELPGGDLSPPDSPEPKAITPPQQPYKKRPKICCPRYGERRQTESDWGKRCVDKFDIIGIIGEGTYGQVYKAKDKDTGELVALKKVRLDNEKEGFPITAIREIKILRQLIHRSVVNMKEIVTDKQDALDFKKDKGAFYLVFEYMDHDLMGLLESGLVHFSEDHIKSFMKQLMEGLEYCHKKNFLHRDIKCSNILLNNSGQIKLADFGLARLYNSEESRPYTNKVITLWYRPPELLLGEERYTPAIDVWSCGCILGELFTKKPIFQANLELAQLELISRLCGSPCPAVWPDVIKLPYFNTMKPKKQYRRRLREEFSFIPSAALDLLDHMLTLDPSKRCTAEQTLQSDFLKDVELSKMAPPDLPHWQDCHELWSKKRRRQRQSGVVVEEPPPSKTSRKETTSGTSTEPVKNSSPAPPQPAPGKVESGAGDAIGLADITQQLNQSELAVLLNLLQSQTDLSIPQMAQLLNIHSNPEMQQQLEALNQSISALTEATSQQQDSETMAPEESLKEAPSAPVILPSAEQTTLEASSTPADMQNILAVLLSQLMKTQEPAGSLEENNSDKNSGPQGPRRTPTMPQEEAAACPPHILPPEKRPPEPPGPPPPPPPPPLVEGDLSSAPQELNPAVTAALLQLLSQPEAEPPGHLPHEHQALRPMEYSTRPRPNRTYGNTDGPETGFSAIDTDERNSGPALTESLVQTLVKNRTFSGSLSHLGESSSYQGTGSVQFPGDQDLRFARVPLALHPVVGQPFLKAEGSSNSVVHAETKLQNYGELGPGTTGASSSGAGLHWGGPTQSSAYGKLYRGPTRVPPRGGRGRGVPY

Row | Kd [1] | Kd (Septin-9) | Kd [2] | Kd (ADP/ATP translocase 2) | Kd [3] | Kd [4] | Kd [5] | Kd [6] | Compound
1 | > 30 µM (inactive) | > 30 µM (inactive) | > 30 µM (inactive) | > 30 µM (inactive) | > 30 µM (inactive) | > 30 µM (inactive) | > 30 µM (inactive) | > 30 µM (inactive) | Cc1cc([C@@H](C)Nc2ccccc2C(=O)O)c2nc(N3CCOCC3)cc(=O)n2c1 [AZD-6482]
2 | > 30 µM (inactive) | > 30 µM (inactive) | > 30 µM (inactive) | > 30 µM (inactive) | > 30 µM (inactive) | > 30 µM (inactive) | > 30 µM (inactive) | > 30 µM (inactive) | CCn1c(=O)c(-c2cc[nH]n2)cc2c(C)nc(N)nc21 [VOXTALISIB]
3 | > 30 µM (inactive) | > 30 µM (inactive) | > 30 µM (inactive) | > 30 µM (inactive) | > 30 µM (inactive) | > 30 µM (inactive) | > 30 µM (inactive) | > 30 µM (inactive) | COc1ccc(-c2ccc3c(N4CCOC[C@@H]4C)nc(N4CCOC[C@@H]4C)nc3n2)cc1CO [AZD-8055]
4 | > 30 µM (inactive) | > 30 µM (inactive) | 0.658 µM (active) | > 30 µM (inactive) | > 30 µM (inactive) | > 30 µM (inactive) | > 30 µM (inactive) | > 30 µM (inactive) | CN(C)C(=O)c1cc2cnc(Nc3ccc(N4CCNCC4)cn3)nc2n1C1CCCC1 [RIBOCICLIB]
5 | > 30 µM (inactive) | > 30 µM (inactive) | > 30 µM (inactive) | > 30 µM (inactive) | > 30 µM (inactive) | > 30 µM (inactive) | > 30 µM (inactive) | > 30 µM (inactive) | Cc1cc2c(F)c(Oc3ncnn4cc(OC[C@@H](C)OC(=O)[C@H](C)N)c(C)c34)ccc2[nH]1 [BRIVANIB ALANINATE]

Row | Compound | Kd [1] | Kd (Septin-9) | Kd [2] | Kd (ADP/ATP translocase 2) | Kd [3] | Kd [4] | Kd [5] | Kd [6]
6 | COC(=O)[C@@]1(O)C[C@H]2O[C@]1(C)n1c3ccccc3c3c4c(c5c6ccccc6n2c5c31)C(=O)NC4 [K-252A] | > 30 µM (inactive) | > 30 µM (inactive) | 1.27 µM (active) | > 30 µM (inactive) | 0.193 µM (active) | > 30 µM (inactive) | > 30 µM (inactive) | > 30 µM (inactive)
7 | Cc1ccc(-n2nc(C(C)(C)C)cc2NC(=O)NCc2cc(F)ccc2Oc2ccc3c(cnn3CCO)c2)cc1 [PEXMETINIB] | > 30 µM (inactive) | > 30 µM (inactive) | > 30 µM (inactive) | > 30 µM (inactive) | > 30 µM (inactive) | > 30 µM (inactive) | > 30 µM (inactive) | > 30 µM (inactive)
